Laboratory results reported in US20220151979A1, “COMPOSITION FOR PREVENTION OR TREATMENT OF CARDIOVASCULAR AND METABOLIC DISEASE COMPRISING NORANHYDROICARITIN” (SEOUL NATIONAL UNIVERSITY HOSPITAL, priority 2019, published 2022).

How the values were obtained:
Format in all cases: cell-based, human
SREBP 1 promoter = experiment: SREBP 1 promoter-reporter luciferase assay in HEK293T cells; conditions: pGL4.14-SREBP-transfected HEK293T cells, 18 hours, compared to control
Protocol: (§1) In order to confirm the SREBP gene expression inhibitory effect of noranhydroicaritin, HEK293T cells were treated with noranhydroicaritin and kaempferol, and it was confirmed whether the expression of SREBP was inhibited through a luciferase assay.
(§2) i) A primer was prepared to contain KpnI and XhoI restriction enzyme sites in the SREBP 1 and 2 promoter gene region, and then PCR (polymerase chain reaction) and electrophoresis on an agarose gel were performed to isolate SREBP promoter region DNA. A pGL4.14-[luc2/Hygro] vector containing a firefly luciferase as a reporter gene was treated with the same restriction enzymes (KpnI and XhoI), and then isolated via agarose gel electrophoresis and gel extraction. The purely isolated SREBP promoter gene region and pGL4.14-[luc2/Hygro] vector were reacted for 1 hour using In-fusion DNA ligase (Takara), and then transformed into E. coli to prepare a promoter-reporter construct in which the SREBP promoter was inserted, and this was named pGL4.14-SREBP.
(§3) ii) In order to measure the transcriptional activity of the SREBP promoter gene, HEK293T cells were transfected with pGL4.14-SREBP, and then the luciferase activity of the cell extract was measured. […] Thereafter, the luciferase activity was measured by the method of Example 6. […]

SREBP 2 promoter = experiment: SREBP 2 promoter-reporter luciferase assay in HEK293T cells; conditions: pGL4.14-SREBP-transfected HEK293T cells, 18 hours, compared to control
Protocol: as §1, §2, §3

PCSK9 [1] = experiment: Immunoblot of PCSK9 in HepG2 cells, noranhydroicaritin and pravastatin, pitavastatin, fluvastatin or simvastatin (Table 1); conditions: statin 5 μM singly, untreated = 1 ± 0.04
Protocol: (§4) The cells aliquoted by the method of Example 7 were treated with noranhydroicaritin or each statin (pravastatin, pitavastatin, fluvastatin, or simvastatin) singly or with noranhydroicaritin and a statin (pravastatin, pitavastatin, fluvastatin, or simvastatin) simultaneously, and the proteins were extracted. On an SDS-polyacrylamide gel, 30 μg of each protein was electrophoresed, and attached to a membrane, and then protein expression levels were confirmed using the respective antibodies: PCSK9 and LDLR.

PCSK9 [2] = experiment: Immunoblot of PCSK9 in HepG2 cells, noranhydroicaritin and statin singly or in combination; conditions: treated singly
Protocol: as §4, with “or a” for “or each”, “statin (atorvastatin” for “statin (pravastatin, pitavastatin, fluvastatin,”, “or rosuvastatin)” for “or simvastatin)”, “antibodies: phospho-AMPK, PCSK9, LDLR,” for “antibodies: PCSK9”, “and PPARγ.” for “and LDLR.”

SMILES	PCSK9 (PCSK9 [1])	also measured
O=c1c(O)c(-c2ccc(O)cc2)oc2cc(O)cc(O)c12 [kaempferol, reference compound]		SREBP 1 luciferase activity (SREBP 1 promoter): actually increased; SREBP 2 luciferase activity (SREBP 2 promoter): actually increased
O=C(O)C[C@H](O)C[C@H](O)/C=C/c1c(C2CC2)nc2ccccc2c1-c1ccc(F)cc1 [Pitavastatin, pitavastatin]	1.59 ± 0.02	
CC[C@H](C)C(=O)O[C@H]1C[C@H](O)C=C2C=C[C@H](C)[C@H](CC[C@@H](O)C[C@@H](O)CC(=O)O)[C@H]21 [Pravastatin, pravastatin]	1.9 ± 0.06	
CC(C)c1nc(N(C)S(C)(=O)=O)nc(-c2ccc(F)cc2)c1/C=C/[C@@H](O)C[C@@H](O)CC(=O)O [rosuvastatin]		quantity of PCSK9 (immunoblot) (PCSK9 [2]): increased
CC(C)n1c(/C=C/C(O)CC(O)CC(=O)O)c(-c2ccc(F)cc2)c2ccccc21 (centres unmarked) [Fluvastatin, fluvastatin]	1.63 ± 0.02	
CCC(C)(C)C(=O)O[C@H]1C[C@@H](C)C=C2C=C[C@H](C)[C@H](CC[C@@H]3C[C@@H](O)CC(=O)O3)[C@H]21 [Simvastatin, simvastatin]	1.85 ± 0.11	
CC(C)c1c(C(=O)Nc2ccccc2)c(-c2ccccc2)c(-c2ccc(F)cc2)n1CC[C@@H](O)C[C@@H](O)CC(=O)O [atorvastatin]		quantity of PCSK9 (immunoblot) (PCSK9 [2]): increased
